Source: paper PMC10318822, “Phase 1 dose-escalation study to evaluate the safety, tolerability, pharmacokinetics, and anti-tumor activity of FCN-159 in adults with neurofibromatosis type 1-related unresectable plexiform neurofibromas” (BMC Medicine, 2023)
“And” between values parts separate entries of the source, which are not always exact repeats. Equal entries are not always repeated.

Test system: adult patients with NF1-related PN
Test: Phase I dose-escalation: DLT, MTD, RP2D and drug-related TEAEs (CTCAE v5.0)
Procedure: This is a multicenter, open-label, single-arm, non-randomized, phase I dose-escalation trial to evaluate the safety, tolerability, pharmacokinetic (PK), and anti-tumor activity of orally administered FCN-159 in adult patients with NF1 (NCT04954001). Phase I commenced with dose escalation in adult patients following a standard 3 + 3 design (Supplementary Table S1) to determine the maximum tolerated dose (MTD) of FCN-159 administered daily under fasting conditions (defined as no food or drink 1 h before and 2 h after each dose) in 28-day cycles. Study drug was dispensed at the study site and patient adherence was monitored by the records of drug dispensation and return. Patients were on treatment until PD, death, patient's voluntary withdrawal from study treatment, or study termination. The study was followed for 2 years after the last patient in. The starting dose was 4 mg, escalating in cohorts of at least three evaluable patients at 6 mg, 8 mg, and 12 mg until the MTD was determined. The starting dose in this study was determined based on available data from a phase 1a, first-in-human study of FCN-159 in patients with advanced NRAS ^mut+ melanoma at the time of study design. […] Dose expansion at a likely RP2D level enrolled approximately six patients. The highest dose level with a dose-limiting toxicity (DLT) incidence rate ≤ 33% (0/3 or 1/6 patients) was to be considered the MTD. If patients experienced grade ≥ 3 and/or unacceptable toxic events that were considered as at least possibly related to the study treatment, the study treatment was discontinued and supportive treatment was given in accordance with local treatment routines. If the toxicity returned to grade ≤ 2 within 28 days after the occurrence, and there was no progression on patients’ conditions or the investigator believed that patients could benefit from the study treatment, the original dose could be maintained or reduced after discussion with medical monitor. After completion of the dose escalation part of the study, PK, efficacy, safety, and tolerability data were analyzed to select the RP2D.
Primary endpoints of the study were the DLT incidence rate, MTD, and RP2D. Secondary endpoints included other safety assessments, imaging tumor response (complete response [CR], PR, stable disease [SD], or progressive disease [PD]), and PK parameters of FCN-159. Adverse events were graded per CTCAE v5.0.
All patients underwent a complete medical history, physical examination, Eastern Cooperative Oncology Group (ECOG) assessment, and laboratory analysis of test results. Drug-related TEAEs, serious adverse events (SAEs), TEAEs of grade ≥ 3 toxicity, and TEAEs leading to drug discontinuation were reviewed on an ongoing basis. Efficacy was assessed by radiologic scans and clinical assessment. Tumor assessments per Response Evaluation in Neurofibromatosis Schwannomatosis criteria were performed by investigators using MRI volumetric analysis every 4 cycles within the first 2 years (± 7 days) and every 6 cycles after 2 years (± 14 days) until PD, death, patient's voluntary withdrawal from study treatment, or study termination. MRI sequences of […], T1- and T2-weighted sequences were chosen and the software of Extended Brilliance Workspace, SIGNA Premier and uExceed were used for MRI volumetric analysis. The same software was used for all tumor assessments at baseline and subsequent assessed timepoints of the same patient. Pain was assessed by an 11-point numerical rating scale (NRS-11).
The sample size for the dose-escalation study was estimated to be 24 based on the 3 + 3 method. Safety was analyzed in patients who received at least one dose of FCN-159 and had at least one safety assessment. DLT was assessed in the DLT analysis set, defined as patients who were enrolled in the dose-escalation study and met the DLT evaluation criteria.

With `Cn1c(=O)c(F)c(Nc2ccc(I)cc2F)c2c(=O)n(C3CC3)nc(-c3cccc(NS(=O)(=O)C4CC4)c3)c21` [FCN-159] the “Drug-related TEAE: Mouth ulceration” value (8 mg (N = 8)) was 1 (12.5) n (%), the “Drug-related TEAE: Muscular weakness” value (8 mg (N = 8)) was 1 (12.5) n (%) and the “Drug-related TEAE: Oedema peripheral” value (8 mg (N = 8)) was 0 n (%). For the same compound, the “Drug-related TEAE: Pain in extremity” value (8 mg (N = 8)) was 0 n (%), the “Drug-related TEAE: Paronychia” value (8 mg (N = 8)) was 3 (37.5) n (%) and the “Drug-related TEAE: Prealbumin decreased” value (8 mg (N = 8)) was 1 (12.5) n (%). The “Drug-related TEAE: Protein urine present” value (8 mg (N = 8)) was 2 (25.0) n (%), the “Drug-related TEAE: Pruritus” value (8 mg (N = 8)) was 1 (12.5) n (%) and the “Drug-related TEAE: QRS axis abnormal” value (8 mg (N = 8)) was 0 n (%). For the same compound, the “Drug-related TEAE: Rash” value (8 mg (N = 8)) was 1 (12.5) n (%), the “Drug-related TEAE: Sinus arrhythmia” value (8 mg (N = 8)) was 0 n (%) and the “Drug-related TEAE: Sinus bradycardia” value (8 mg (N = 8)) was 0 n (%). For the same compound, the “Drug-related TEAE: Sinusitis” value (8 mg (N = 8)) was 0 n (%), the “Drug-related TEAE: Skin exfoliation” value (8 mg (N = 8)) was 1 (12.5) n (%) and the “Drug-related TEAE: Specific gravity urine increased” value (8 mg (N = 8)) was 2 (25.0) n (%). For the same compound, the “Drug-related TEAE: Stomatitis” value (8 mg (N = 8)) was 3 (37.5) n (%), the “Drug-related TEAE: Supraventricular extrasystoles” value (8 mg (N = 8)) was 0 n (%) and the “Drug-related TEAE: Total bile acids increased” value (8 mg (N = 8)) was 0 n (%). The “Drug-related TEAE: Tricuspid valve incompetence” value (8 mg (N = 8)) was 2 (25.0) n (%), the “Drug-related TEAE: Urinary occult blood positive” value (8 mg (N = 8)) was 2 (25.0) n (%) and the “Drug-related TEAE: Urinary sediment present” value (8 mg (N = 8)) was 1 (12.5) n (%). For the same compound, the “Drug-related TEAE: Urinary tract infection” value (8 mg (N = 8)) was 0 n (%), the “Drug-related TEAE: Urine ketone body present” value (8 mg (N = 8)) was 2 (25.0) n (%) and the “Drug-related TEAE: Urobilinogen urine increased” value (8 mg (N = 8)) was 1 (12.5) n (%). The “Drug-related TEAE: Urticaria” value (8 mg (N = 8)) was 0 n (%), the “Drug-related TEAE: Vision blurred” value (8 mg (N = 8)) was 1 (12.5) n (%) and the “Drug-related TEAE: Visual acuity reduced” value (8 mg (N = 8)) was 0 n (%). The “Drug-related TEAE: pH urine decreased” value (8 mg (N = 8)) was 2 (25.0) n (%), the “Drug-related TEAE: pH urine increased” value (8 mg (N = 8)) was 1 (12.5) n (%) and the “Subjects with any drug-related TEAE” value (8 mg (N = 8)) was 8 (100) n (%). The “Patients with DLT (grade 3 folliculitis)” value (8 mg, 1 of 8 patients) was 16.7% and 12.5%, the “Subjects with grade 3 AEs” value (12 mg) was “four” and the “Drug-related TEAE: Abdominal pain” value (12 mg (N = 4)) was 0 n (%). The “Drug-related TEAE: Acne” value (12 mg (N = 4)) was 0 n (%), the “Drug-related TEAE: Acne pustular” value (12 mg (N = 4)) was 0 n (%) and the “Drug-related TEAE: Alanine aminotransferase increased” value (12 mg (N = 4)) was 0 n (%). The “Drug-related TEAE: Albumin globulin ratio decreased” value (12 mg (N = 4)) was 0 n (%), the “Drug-related TEAE: Alopecia” value (12 mg (N = 4)) was 3 (75.0) n (%) and the “Drug-related TEAE: Amylase increased” value (12 mg (N = 4)) was 1 (25.0) n (%). For the same compound, the “Drug-related TEAE: Anemia” value (12 mg (N = 4)) was 0 n (%), the “Drug-related TEAE: Aortic dilatation” value (12 mg (N = 4)) was 0 n (%) and the “Drug-related TEAE: Aspartate aminotransferase increased” value (12 mg (N = 4)) was 0 n (%). For the same compound, the “Drug-related TEAE: Asthenia” value (12 mg (N = 4)) was 0 n (%), the “Drug-related TEAE: Beta globulin decreased” value (12 mg (N = 4)) was 0 n (%) and the “Drug-related TEAE: Beta globulin increased” value (12 mg (N = 4)) was 0 n (%). The “Drug-related TEAE: Blood alkaline phosphatase increased” value (12 mg (N = 4)) was 2 (50.0) n (%), the “Drug-related TEAE: Blood bilirubin increased” value (12 mg (N = 4)) was 0 n (%) and the “Drug-related TEAE: Blood creatine phosphokinase increased” value (12 mg (N = 4)) was 0 n (%). The “Drug-related TEAE: Blood fibrinogen increased” value (12 mg (N = 4)) was 4 (100) n (%), the “Drug-related TEAE: Blood lactate dehydrogenase increased” value (12 mg (N = 4)) was 1 (25.0) n (%) and the “Drug-related TEAE: Blood pressure increased” value (12 mg (N = 4)) was 1 (25.0) n (%). For the same compound, the “Drug-related TEAE: Blood urea increased” value (12 mg (N = 4)) was 0 n (%), the “Drug-related TEAE: Blood uric acid increased” value (12 mg (N = 4)) was 0 n (%) and the “Drug-related TEAE: Breath odor” value (12 mg (N = 4)) was 0 n (%). For the same compound, the “Drug-related TEAE: Capillary disorder” value (12 mg (N = 4)) was 0 n (%), the “Drug-related TEAE: Constipation” value (12 mg (N = 4)) was 2 (50.0) n (%) and the “Drug-related TEAE: Decreased appetite” value (12 mg (N = 4)) was 0 n (%). For the same compound, the “Drug-related TEAE: Dermatitis acneiform” value (12 mg (N = 4)) was 0 n (%), the “Drug-related TEAE: Diarrhea” value (12 mg (N = 4)) was 0 n (%) and the “Drug-related TEAE: Drug eruption” value (12 mg (N = 4)) was 0 n (%). The “Drug-related TEAE: Dyslipidemia” value (12 mg (N = 4)) was 0 n (%), the “Drug-related TEAE: Ejection fraction decreased” value (12 mg (N = 4)) was 0 n (%) and the “Drug-related TEAE: Electrocardiogram QT prolonged” value (12 mg (N = 4)) was 0 n (%). For the same compound, the “Drug-related TEAE: Electrocardiogram abnormal” value (12 mg (N = 4)) was 2 (50.0) n (%), the “Drug-related TEAE: Epistaxis” value (12 mg (N = 4)) was 0 n (%) and the “Drug-related TEAE: Folliculitis” value (12 mg (N = 4)) was 4 (100) n (%). The “Drug-related TEAE: Functional gastrointestinal disorder” value (12 mg (N = 4)) was 0 n (%), the “Drug-related TEAE: Gamma-glutamyltransferase increased” value (12 mg (N = 4)) was 0 n (%) and the “Drug-related TEAE: Gingival pain” value (12 mg (N = 4)) was 0 n (%). The “Drug-related TEAE: Hyperlipidemia” value (12 mg (N = 4)) was 1 (25.0) n (%), the “Drug-related TEAE: Hypertension” value (12 mg (N = 4)) was 0 n (%) and the “Drug-related TEAE: Hypoalbuminemia” value (12 mg (N = 4)) was 0 n (%). The “Drug-related TEAE: Hypocalcemia” value (12 mg (N = 4)) was 0 n (%), the “Drug-related TEAE: Hypophosphatemia” value (12 mg (N = 4)) was 0 n (%) and the “Drug-related TEAE: Hypoproteinemia” value (12 mg (N = 4)) was 0 n (%). For the same compound, the “Drug-related TEAE: Immunoglobulins increased” value (12 mg (N = 4)) was 0 n (%), the “Drug-related TEAE: Impetigo” value (12 mg (N = 4)) was 0 n (%) and the “Drug-related TEAE: Left atrial enlargement” value (12 mg (N = 4)) was 0 n (%). For the same compound, the “Drug-related TEAE: Lipoprotein abnormal” value (12 mg (N = 4)) was 0 n (%), the “Drug-related TEAE: Malaise” value (12 mg (N = 4)) was 0 n (%) and the “Drug-related TEAE: Menstrual disorder” value (12 mg (N = 4)) was 2 (50.0) n (%). For the same compound, the “Drug-related TEAE: Mitral valve incompetence” value (12 mg (N = 4)) was 1 (25.0) n (%), the “Drug-related TEAE: Mouth ulceration” value (12 mg (N = 4)) was 3 (75.0) n (%) and the “Drug-related TEAE: Muscular weakness” value (12 mg (N = 4)) was 0 n (%). The “Drug-related TEAE: Oedema peripheral” value (12 mg (N = 4)) was 0 n (%), the “Drug-related TEAE: Pain in extremity” value (12 mg (N = 4)) was 0 n (%) and the “Drug-related TEAE: Paronychia” value (12 mg (N = 4)) was 0 n (%). For the same compound, the “Drug-related TEAE: Prealbumin decreased” value (12 mg (N = 4)) was 0 n (%), the “Drug-related TEAE: Protein urine present” value (12 mg (N = 4)) was 0 n (%) and the “Drug-related TEAE: Pruritus” value (12 mg (N = 4)) was 0 n (%). The “Drug-related TEAE: QRS axis abnormal” value (12 mg (N = 4)) was 3 (75.0) n (%), the “Drug-related TEAE: Rash” value (12 mg (N = 4)) was 0 n (%) and the “Drug-related TEAE: Sinus arrhythmia” value (12 mg (N = 4)) was 0 n (%). For the same compound, the “Drug-related TEAE: Sinus bradycardia” value (12 mg (N = 4)) was 0 n (%), the “Drug-related TEAE: Sinusitis” value (12 mg (N = 4)) was 1 (25.0) n (%) and the “Drug-related TEAE: Skin exfoliation” value (12 mg (N = 4)) was 0 n (%). The “Drug-related TEAE: Specific gravity urine increased” value (12 mg (N = 4)) was 0 n (%), the “Drug-related TEAE: Stomatitis” value (12 mg (N = 4)) was 0 n (%) and the “Drug-related TEAE: Supraventricular extrasystoles” value (12 mg (N = 4)) was 0 n (%). For the same compound, the “Drug-related TEAE: Total bile acids increased” value (12 mg (N = 4)) was 0 n (%), the “Drug-related TEAE: Tricuspid valve incompetence” value (12 mg (N = 4)) was 0 n (%) and the “Drug-related TEAE: Urinary occult blood positive” value (12 mg (N = 4)) was 0 n (%). For the same compound, the “Drug-related TEAE: Urinary sediment present” value (12 mg (N = 4)) was 0 n (%), the “Drug-related TEAE: Urinary tract infection” value (12 mg (N = 4)) was 0 n (%) and the “Drug-related TEAE: Urine ketone body present” value (12 mg (N = 4)) was 0 n (%). For the same compound, the “Drug-related TEAE: Urobilinogen urine increased” value (12 mg (N = 4)) was 0 n (%).
